Measurements: patent US20190105260A1, “COMPOSITIONS AND METHODS TO PROMOTE WOUND HEALING” (The Regents of the University of California, priority 2016, published 2019)

Columns and labels:
[1] = system: bone marrow-derived macrophages (BMDMs), M2 polarization; assay: In vitro macrophage polarization (RT-PCR, flow cytometry); type: cell-based, mouse
Method: Bone marrow described macrophages from wild-type C57/B6J mice were harvested and cultured under polarizing conditions towards M0 (no polarization; normal culture medium), M1 (using LPS and IFNγ) or M2 (using IL-4 and IL-13). […] M2 activation status was assessed using RT-PCR (normalized to HSP90) for CD206, Ym-1 and Arg-1. M1 activation status was assessed using TNFα (A, B). C: At day 7 of macrophage maturation, adherent bone marrow derived monocytes in culture were identified with macrophage markers (CD11b and F4/80) using flow cytometry. After 24 hours, CD206 expression was identified in treated group (C). Results were then quantified and reported (D). Data presented as average±SEM. ** p<0.01.
Wild type C57BL/6 male and female mice were used. Bone marrow-derived (BMD) cells were isolated from mouse femurs and tibias. ACK solution (Thermo Fisher catalog 50-983-220) was used for 5 minutes at 37° C. to lyse red blood cells. BMD macrophages (BMDMs) were matured with (20 ng/mL) M-CSF (R&D) for 7 days. On day 7, BMDM phenotype was confirmed with flow cytometry by CD11b and F4/80 markers (Biolegend). Following maturation, BMDMs were either polarized towards M1 lineage with 10 ng/ml LPS (Sigma Aldrich) and 100 ng/ml IFN-g (R&D) or M2 lineage with 20 ng/ml IL-4 (PeproTech) and IL-13 (R&D) in cRPMI (1×RPMI (Cellgro), 10% FBS, 1× sodium pyruvate (GIBCO), 1× penicillin/streptomycin (GIBCO) at 37° C. for 24 hours. Non-polarized BMDMs and M1-polarized BMDMs were used as experimental controls for polarization procedure. M2-polarized BMDMs were co-treated with either PBS or FLX and/or 100 nM NAN-190 or 1 μM Ketanserin. Cells were either collected after 4 hours by scraping and stored in buffer RLT (Qiagen) at −80° C. or were read with flow cytometry after 24 hours and data were appropriately compensated and analyzed by FlowJo.
RT-PCR was performed using PowerUp SYBR Green Master Mix (Thermo/Applied Biosystems). Data was analyzed using the ΔΔCt method and normalized using geometric mean of the housekeeping genes (GAPDH, Hsp90, 18S rRNA). Fold change is shown relative to control groups.

[2] = system: Db/Db female mice, diabetic model of impaired wound healing; assay: In vivo splinted full-thickness excisional wound model, re-epithelialization analysis; design: species or system mouse; details: for re-epithelialization vs vehicle control: daily topical 0.2% fluoxetine or 2% serotonin in 5% polyethylene glycol, day 10
Method: Panel B: Histomorphometric analysis of wounds. Representative histology sections for each group were chosen. Following euthanasia of animals, wounds were excised, biopsied and bisected. Wound tissue was fixed in paraformaldehyde for 12-16 hours and then paraffin embedded. Serial 5 μm sections were obtained from the center of the wound and the section with the largest wound bed (as defined by distance between hair follicles) was stained with hemotoxylin and eosin. Images were taken using 10× objective on a Keyance microscope. Panels C-D: Re-epithelialization was determined on sections created as in panel B. Image J analysis software was utilized to divide the re-epithelialized tissue (distance from hair follicle to remaining wound) by the entire original wound surface (as defined as distance between hair follicles). Panel D provides the distribution of data depicted in Panel C. P values were derived using a 2-tailed t-test.
13 week-old Db/Db female mice underwent full-thickness excisional biopsies with 8 mm punch biopsies. Wounds were splinted to prevent contraction. At day 12, animals were sacrificed and wounds were harvested to assess re-epithelialization. Representative histology sections for each group were chosen. Following euthanasia of animals, wounds were excised, biopsied and bisected. Wound tissue was fixed in paraformaldehyde for 12-16 hours and then paraffin embedded. Serial […] sections were obtained from the center of the wound and the section with the largest wound bed (as defined by distance between subcutaneous fat tissue) was stained with hemotoxylin and eosin. Images were taken using 10× objective on a Keyance microscope. (A) Re-epithelialization was determined on sections created. Image J analysis software was utilized to divide the re-epithelialized tissue by the entire original wound surface. (B) Percent of wounds at different stages of re-epithelialization was quantified. Data represented as Mean±SEM. P values were derived using a 2-tailed t-test. N=5/group.
13 week-old Db/Db female mice underwent full-thickness excisional wounding with 8 mm punch biopsy tool. All wounds were splinted to prevent contraction. […] At day 11, animals were sacrificed and wounds were harvested to assess re-epithelialization. Representative histology sections for each group were chosen. Following euthanasia of animals, wounds were excised, biopsied and bisected. Wound tissue was fixed in paraformaldehyde for 12-16 hours and then paraffin embedded. Serial […] sections were obtained from the center of the wound and the section with the largest wound bed (as defined by distance between subcutaneous fat tissue) was stained with hemotoxylin and eosin. Images were taken using 10× objective on a Keyance microscope. Re-epithelialization was determined on sections created. Image J analysis software was utilized to divide the re-epithelialized tissue by the entire original wound surface. Data represented as Mean±SEM. N=5/group.
Diabetic status (blood glucose >300 mg/dl) was confirmed in female Db/Db mice at age 11 weeks. At age 13 weeks, mice underwent hair removal and synchronization of follicle cycling through depilation and shaving. Synchronization was confirmed based on lack of skin pigmentation in included mice. 1 day after synchronization, 13-week-old Db/Db female mice underwent full-thickness excisional wounding using a splinted model as described. Briefly, 8 mm punch biopsies were used to make full-thickness excisional wounds. […]

[3] = Serotonin degradation in culture (ELISA); type: physicochemical; details: after 24 hours in culture, in both the presence and absence of BMSC
Source text: Serotonin is rapidly degraded when exposed to in vitro in culture conditions.

[4] = system: phosphorylated STAT3 in keratinocytes; assay: Multiplex assay, phosphorylated STAT3; type: cell-based, human; details: 10 μM 5-HT for 6 hours, NHKs
Method: (§1) FIGS. 2A-C illustrate that serotonin (5-HT) increases keratinocyte migratory speed and re-epithelialization in a scratch wound ex vivo model, likely through the ERK-STAT3-NFkB pathway.
(§2) NHKs from 3 different donors were cultured in 100 mm dishes until 80% confluent and treated with 10 μM 5-HT for 6 hours. Protein lysates were collected and quantified with Bradford assays before proceeding according to manufacturer's protocol (Millipore Multiplex Assay (MILLIPLEX® MAP 48-680MAG). Results were normalized to total protein levels quantified separately by Bradford protein assays.

[5] = system: phosphorylated ERK in keratinocytes; assay: Multiplex assay, phosphorylated ERK; type: cell-based, human; details: 10 μM 5-HT for 6 hours, NHKs
Method: as §1, §2

BMSC = BMSC migration assay; type: cell-based; details: 10 uM 5HT vs untreated BMSC; BMSC pooled from 3 donors
[6] = 100 nM fluoxetine, after 4 hours of polarization

| SMILES | Arg-1 transcripts (RT-PCR) [1, 6] | CD206 transcripts (RT-PCR) [1, 6] | Ym-1 transcripts (RT-PCR) [1, 6] | M2 polarization of naïve macrophages (CD206+ cells, flow cytometry) ([1]; after 24 hours of M2 polarization) | re-epithelialization compared to PEG vehicle control ([2]; daily topical 0.2% fluoxetine or 0.01% timolol, day 12) | re-epithelialization vs vehicle control [2] | increase in re-epithelialization compared to INTEGRA alone ([2]; day 11, all wounds with INTEGRA matrix, 1 μM fluoxetine daily, 250,000 MSC) [%] | serotonin in culture lost [3] | phosphorylation of STAT3 [4] | phosphorylation of ERK [5] | BMSC migratory speed (BMSC) |
| --- | --- | --- | --- | --- | --- | --- | --- | --- | --- | --- | --- |
| CNCCC(Oc1ccc(C(F)(F)F)cc1)c1ccccc1 (stereo not drawn) [fluoxetine] | significant increased | significant increased | significant increased | enhanced | increased | significantly improved | 17 |  |  |  |  |
| NCCc1c[nH]c2ccc(O)cc12 [serotonin] |  |  |  |  |  | significantly improved |  | Over 50% | significantly increased | significantly increased | significantly increased |
